Data published in patent publication EP4444311B1, “GI[…] TREATMENT OF CHRONIC HEPATITIS B VIRUS INFECTIONS” (priority 2021, dated 2023).
Read-outs that look alike come from different tables or passages of the source.

Columns and labels:
HepG2.2.15 cells = experiment: Cytotoxicity assay (CCK-8 cell viability); assay type: cell-based, human; details: 3.12-100 µM; for HepG2.2.15 cytotoxicity: day 2 and 4 post-first exposure; for cell viabilities: day 6 post-first exposure, unrelated to ginsenoside doses, non-specific decline
Experimental: HepG2.2.15 cells (seeded at a density of 4 x 10^4 cells per well in 96-well plates) were cultured at 37 °C in humidified air with 5 % CO2. After cells reached 70-80 % confluence, initial screening of ginsenoside library compounds was performed with each compound added to cultured HepG2.2.15 cell at a final concentration of 50 µM. Cells were then further incubated at 37 °C under 5 % CO2. At day 4 post-first exposure of cells to each ginsenoside library compound, percentage cell viabilities were determined by CCK-8 (Dojindo Laboratories, Kumamoto, Japan) used according to manufacturer's instructions. Thereafter, cytotoxicity studies were performed with appropriate quantities of selected ginsenosides (Rg6, Rh4, or Rb3) added to cultured HepG2.2.15 cells at final concentrations of 100, 50, 25, 12.5, 6.25 or 3.12 µM. Cells were then incubated at 37 °C under 5 % CO2. At day 2, 4, and 6 post-first exposure of cells to the selected ginsenosides, percentage cell viabilities were determined by CCK-8 assay as above. Final cytotoxicity studies were performed with combinations of ginsenoside compounds (Rg6, Rh4 or Rb3) (at 80, 40, 20, 10, 5 or 2.5 µM) and LMV (at 0.08, 0.04, 0.02, 0.01, 0.005 or 0.0025 µM) respectively added to cultured HepG2.2.15 cells. Once more, cells were further incubated at 37 °C under 5 % CO2. At day 5 post-first exposure of cells to ginsenoside/LMV combinations, percentage cell viabilities were determined by CCK-8 assay once again.

[1] = system: HBs protein (S-HBs, M-HBs, and L-HBs) mRNA; experiment: Knockdown of HBs protein mRNA expression levels in HepG2.2.15 cells (RT-qPCR relative to GAPDH mRNA); assay type: cell-based, hepatitis B virus; details: for IC50: Hepatitis B virus, read-out: Estimated IC50 values (knockdown of HBs protein mRNA expression levels); for knockdown effects on HBs protein mRNA expression levels: day 6 post-first exposure (data not shown); for knockdown HBs protein mRNA expression levels (in words): library screen, 50 µM, day 4 post-first exposure, HepG2.2.15 cells
Experimental: HepG2.2.15 cells (seeded at a density of 4 x 10^4 cells per well in 96-well plates) were cultured at 37 °C in humidified air with 5 % CO2. Once cells had reached confluence, initial screening of ginsenoside library compounds was performed with each compound added individually to culture media at a final concentration of 50 µM. Cells were then further incubated at 37 °C under 5 % CO2. At day 4 post-first exposure, cells were then collected to determine the percentage knockdowns of HBs protein mRNA expression levels relative to GAPDH mRNA levels (as described below).
Thereafter, more extensive studies were performed with HepG2.2.15 cells as follows. After cells were grown to confluence, as above, culture media were replaced with media containing one of the selected ginsenosides as appropriate, or else with LMV or ginsenoside/LMV combinations at the indicated concentrations. Cells were then further incubated at 37 °C under 5 % CO2. At the indicated times (at day 2, 4, or 6 post-first exposure; or at just day 5 post-first exposure), cell and culture media samples respectively were collected for subsequent detection of HBs protein mRNA expression levels or secreted HBV DNA and HBsAg levels (as described below).
RNA extraction from cells was performed using the QIAamp® Viral RNA Mini kit (Qiagen, Germany), according to manufacturer's instructions. RNA integrity was evaluated by electrophoresis on 1% agarose gels, and quantified using a ND1000 spectrophotometer (NanoDrop Technologies, Germany). Following this, extracted RNA (1 µg) was used to synthesize cDNA using a SensiFAST™ cDNA Synthesis Kit (Meridian Bioscience Inc, Cincinnati, OH, USA) according to manufacturer's instructions. RT-qPCR reactions were then performed with qPCR 2xSYBR master mix (Top-Bio, Czech Republic) on a LightCycler® real-time PCR system (Roche, Switzerland), using the indicated primers specific for amplification of HBs protein (S-HBs, M-HBs, and L-HBs) and GAPDH control mRNAs (Table 1). PCR amplification was performed on multiple RT-qPCR reaction mixtures (each 20 µl) located in individual wells of a 96-well optical-grade PCR plate, sealed with optical sealing tape (Bio-Rad Laboratories, Hercules, CA, USA). Each RT-qPCR reaction mixture comprised synthesized cDNA (2 µl) (diluted 1:1), appropriate primers (each 0.4 µl, […]), 2xSYBR green PCR master mix (10 µl) and ddH2O (7.2 µl). PCR amplification involved one cycle at 94 °C (5 min), followed by 40 cycles of denaturation at 94 °C (20 s), then annealing and extension at 57 °C for 20 s, plus 72 °C for 30 s. Finally, melting curve analyses were performed by slowly heating the PCR reaction mixtures from 65 to 95 °C, in increments of 0.5 °C every 5 s, with simultaneous measurements of the SYBR green signal intensities. Percentage knockdowns of HBs protein mRNA expression levels were determined relative to GAPDH mRNA levels using calculated 2^-ΔΔct values [Livak, K.J; Schmittgen, T.D. Analysis of relative gene expression data using real-time quantitative PCR and the 2(-Delta Delta C(T)) Method. Methods 2001, 25, 402-8]. Three biological replicates were performed for each data point where fold change (FC) ≥ 2 is considered statistically significant. Table 1. Primers for RT-qPCR detection of specific mRNAs

SMILES | HepG2.2.15 cytotoxicity (HepG2.2.15 cells) | cell viabilities (HepG2.2.15 cells) | IC50 ([1]; HepG2.2.15, 48 h) | IC50 ([1]; HepG2.2.15, 96 h) | knockdown effects on HBs protein mRNA expression levels [1] | knockdown HBs protein mRNA expression levels (in words) [1]
C=C(CCC=C(C)C)[C@H]1CC[C@]2(C)[C@@H]1[C@H](O)C[C@@H]1[C@@]3(C)CC[C@H](O)C(C)(C)[C@@H]3[C@@H](O[C@@H]3O[C@H](CO)[C@@H](O)[C@H](O)[C@H]3O[C@@H]3O[C@@H](C)[C@H](O)[C@@H](O)[C@H]3O)C[C@]12C [Rg6] | no significant HepG2.2.15 cytotoxicity | Slightly reduced cell viabilities | 5.1 µM | 3.2 µM | wear off completely | especially effective
CC(C)=CCC[C@](C)(O[C@@H]1O[C@H](CO[C@@H]2OC[C@@H](O)[C@H](O)[C@H]2O)[C@@H](O)[C@H](O)[C@H]1O)[C@H]1CC[C@]2(C)[C@@H]1[C@H](O)C[C@@H]1[C@@]3(C)CC[C@H](O[C@@H]4O[C@H](CO)[C@@H](O)[C@H](O)[C@H]4O[C@@H]4O[C@H](CO)[C@@H](O)[C@H](O)[C@H]4O)C(C)(C)[C@@H]3CC[C@]12C [Rb3] | no significant HepG2.2.15 cytotoxicity | Slightly reduced cell viabilities | 4.1 µM | 3.2 µM | wear off completely | especially effective
